According to patent US9770434B2, “Compositions for improved body composition” (Northern Innovations Holding Corp, priority 2014, dated 2017):
“Also recorded” adds a separate entry of the source.

Columns and labels:
Type in all cases: in vivo, C57BL6/J male mice
[1] = Body weight of high fat diet mice during treatment; conditions: HFD mice, ALA about 174 mg/kg daily, curcumin about 65 mg/kg daily; for body weight during the course of the experiment (FIG. 1): supplement in diet, recorded weekly
Text: (§1) 5 week old C57BL6/J male mice were divided into 2 groups as follows: normal diet (ND) (10% kcal/fat) or high fat diet (HFD) (60% kcal/fat) each containing the same total calories. At 12 weeks of age, the HFD group was further divided into 4 groups as follows: HFD alone, HFD supplemented with alpha-lipoic acid (HFD+ALA), HFD supplemented with curcumin (HFD+CUR), or HFD supplemented with alpha-lipoic acid plus curcumin (HFD+ALA+CUR). Based on the average food intake, the daily dose for alpha-lipoic acid in the HFD+ALA group was about 174 mg/kg, the daily dose for curcumin in the HFD+CUR group was about 65 mg/kg, and the daily dose for each component in the HFD+ALA+CUR group was similar to that in the respective groups. Each of the 5 groups contained 8-10 mice. Body weight of the mice was recorded weekly and food intake was monitored every two days. After 10 weeks of treatment mice from each group were subjected to dual-energy X-ray absorptiometry (DEXA) scan; percent (%) body fat, fat mass, and lean mass were calculated.

[2] = Food intake of high fat diet mice; conditions: HFD mice; monitored every two days; compared to HFD mice
Text: as §1

[3] = DEXA scan of high fat diet mice (body fat %, fat mass, lean mass); conditions: HFD mice; after 10 weeks of treatment
Text: as §1

| SMILES | body weight / weight gain after 11 weeks of treatment (FIG. 3) [1] | body weight during the course of the experiment (FIG. 1) [1] | food intake (grams) per day per gram body weight (FIG. 4) [2] | food intake (kcals) per day per gram body weight (FIG. 5) [2] | DEXA body fat % (FIG. 6) [3] | DEXA fat mass (FIG. 7) [3] | DEXA lean mass (FIG. 8) [3] |
| --- | --- | --- | --- | --- | --- | --- | --- |
| O=C(O)CCCCC1CCSS1 (racemic) [alpha-lipoic acid, 6,8-dithio octanoic acid] | attenuated weight gain; also recorded: efficacy at attenuating weight gain | weight gain less than the HFD mice | reduced food intake | reduced calorie intake | failed to reduce body fat % | attenuated increase in fat mass compared to the HFD group | significant attenuation in lean mass accrual |
| COc1cc(/C=C/C(=O)CC(=O)/C=C/c2ccc(O)c(OC)c2)ccc1O [curcumin] | attenuated weight gain; also recorded: efficacy at attenuating weight gain | weight gain less than the HFD mice | – | – | reduced the increased body fat % from a high fat diet | – | unaltered |
